Source: patent US20220073536A1 (Rigel Pharmaceuticals, Inc., priority 2003, published 2022)
Counter-ions that a name gives are not always drawn.

Test system: cultured human mast cells (CHMC)
Test: CHMC low cell density IgE activation: tryptase assay
Assay type: cell-based
Settings: Homo sapiens, Mast cell, low cell density CHMC, IgE activation, tryptase, 3 pt; read-out: LD Tryptase, CHMC, IgE, 3 pt
Summary of the method: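 CHMC at 1000–1500 cells/well were preincubated 1 hr at 37° C., stimulated with anti-IgE for 30 minutes at 37° C., then pelleted. Supernatant tryptase was measured with a fluorogenic substrate after 30 min at room temperature, against un-stimulated control wells.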

IC50 [µM] | Structure (SMILES)
< 10 | CCOC(=O)N1CCC(Nc2nc(Nc3ccc(N4CCN(C)CC4)cc3)ncc2F)CC1 [Compound 1225]
< 10 | CCOC(=O)N1CCC(Nc2nc(Nc3cccc(N4CCN(C)CC4)c3)ncc2F)CC1 [Compound 1226]
< 10 | CCOC(=O)N1CCC(Nc2nc(Nc3ccc(N4CCN(C)CC4)c(Cl)c3)ncc2F)CC1 [Compound 1227]
< 10 | CCOC(=O)N1CCC(Nc2nc(Nc3ccc(N4CCN(C)CC4)c(C)c3)ncc2F)CC1 [Compound 1228]
< 10 | CCN1CCN(c2ccc(Nc3ncc(F)c(NC4CCC4)n3)cn2)CC1 [Compound 1230]
< 10 | CCN1CCN(c2ccc(Nc3ncc(F)c(NC4CCCC4)n3)cn2)CC1 [Compound 1231]
< 10 | CCN1CCN(c2ccc(Nc3ncc(F)c(NC4CCCCC4)n3)cn2)CC1 [Compound 1232]
> 10 | Cc1cc(Nc2ncc(F)c(NC3CCC3)n2)cnc1N1CCN(C)CC1 [Compound 1239]
< 10 | Cc1cc(Nc2ncc(F)c(NC3CCCC3)n2)cnc1N1CCN(C)CC1 [Compound 1240, N4-Cyclopentyl-5-fluoro-N2-[2-(4-methylpiperazino)-3-methylpyrid-5-yl]-2,4-pyrimidinediamine]
< 10 | Cc1cc(Nc2ncc(F)c(NC3CCCCC3)n2)cnc1N1CCN(C)CC1 [Compound 1241]
< 10 | Cc1cc(Nc2ncc(F)c(NC(C)C)n2)cnc1N1CCN(C)CC1 [Compound 1242]
> 10 | Cc1cc(Nc2ncc(F)c(NC3CC(C)(C)N(C)C(C)(C)C3)n2)cnc1N1CCN(C)CC1 [Compound 1244]
> 10 | Cc1cc(N2CCN(C)CC2)ncc1Nc1ncc(F)c(NC2CCC2)n1 [Compound 1245]
> 10 | Cc1cc(N2CCN(C)CC2)ncc1Nc1ncc(F)c(NC2CCCC2)n1 [Compound 1246]

Continued, molecule first:

Structure (SMILES) | IC50 [µM]
CN1CCN(c2ccc(Nc3ncc(F)c(NC(C)(C)C)n3)cc2Cl)CC1 [Compound 1217] | < 10
CN1CCN(c2ccc(Nc3ncc(F)c(NC4CC(C)(C)N(C)C(C)(C)C4)n3)cc2)CC1 [Compound 1219] | > 10
CN1CCN(c2cccc(Nc3ncc(F)c(NC4CC(C)(C)N(C)C(C)(C)C4)n3)c2)CC1 [Compound 1221] | > 10
CN1CCN(c2ccc(Nc3ncc(F)c(NC4CC(C)(C)N(C)C(C)(C)C4)n3)cc2Cl)CC1 [Compound 1222] | > 10
Cc1cc(Nc2ncc(F)c(NC3CC(C)(C)N(C)C(C)(C)C3)n2)ccc1N1CCN(C)CC1 [Compound 1223] | < 10
CN1CCN(c2ccc(Nc3ncc(F)c(NC4CC(C)(C)N(C)C(C)(C)C4)n3)cc2C(F)(F)F)CC1 [Compound 1224] | > 10
CCOC(=O)N1CCC(Nc2nc(Nc3ccc(N4CCN(C)CC4)c(C(F)(F)F)c3)ncc2F)CC1 [Compound 1229] | < 10
CN1CCN(c2ccc(Nc3ncc(F)c(NC(C)(C)C)n3)cc2C(F)(F)F)CC1 [Compound 1233] | < 10
CCN1CCN(c2ccc(Nc3ncc(F)c(NC(C)C)n3)cn2)CC1 [Compound 1234] | < 10
CCN1CCN(c2ccc(Nc3ncc(F)c(NC(C)(C)C)n3)cn2)CC1 [Compound 1236] | > 10
CCN1CCN(c2ccc(Nc3ncc(F)c(NC4CC(C)(C)N(C)C(C)(C)C4)n3)cn2)CC1 [Compound 1237] | > 10
CCOC(=O)N1CCC(Nc2nc(Nc3ccc(N4CCN(CC)CC4)nc3)ncc2F)CC1 [Compound 1238] | > 10

Same assay, conditions: Homo sapiens, Mast cell, low cell density CHMC, IgE activation, tryptase, 8 pt; read-out: LD Tryptase, CHMC, IgE, 8 pt

IC50 [µM] | Structure (SMILES)
< 10 | Cc1cc(Nc2ncc(F)c(NC(C)(C)C)n2)ccc1N1CCN(C)CC1 [Compound 1218]
< 10 | Cc1cc(Nc2ncc(F)c(NC3CCC3)n2)ccc1N1CCN(C)CC1 [Compound 1220]
> 10 | CN1CCN(c2ccc(Nc3ncc(F)c(NC4CCC4)n3)cc2CO)CC1 [Compound 1235]

Same assay, conditions: low cell density CHMC, IgE activation, tryptase, 3 pt; read-out: LD Tryptase, CHMC, IgE, 3 pt

IC50 [µM] | Structure (SMILES)
< 10 | CN1CCN(c2ccc(Nc3ncc(F)c(NC4CCC4)n3)cc2CO)CC1 [Compound 1243, N4-Cyclobutyl-5-fluoro-N2-[3-hydroxymethyl-4-(4-methylpiperazino)phenyl]-2,4-pyrimidinediamine Bishydrogen chloride salt]
